Consider 18 molecules from patent US20230203044A1, “PYRAZOLO[1,5-D][1,2,4]TRIAZINE-5(4H)-ACETAMIDES AS INHIBITORS OF THE NLRP3 INFLAMMASOME” (JANSSEN PHARMACEUTICA NV, priority 2020, published 2023).

The test system of one assay is TNF. Put plainly: PBMC assay: TNF cytokine levels in LPS-stimulated human PBMCs (MSD). It counts as cell-based. Conditions: 100 ng/ml LPS for 6 hrs, TNF in supernatant via MSD. Put shortly:
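Cryopreserved healthy-donor human PBMCs (7.5×10^4 cells/well, RPMI + 10% FBS) were preincubated with 1:3 serially diluted compounds for 30 min at 37 °C. They were then stimulated with 100 ng/ml LPS (final) for 6 h. Supernatant TNF was measured by MSD, and EC50 values were derived.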

The subject of a further assay is NLRP3 inflammasome. Put plainly: PBMC assay: IL-1β in LPS-stimulated human PBMCs (MSD). The assay is classed as cell-based. Conditions: human PBMCs, 100 ng/ml LPS for 6 hrs, IL-1β in supernatant via MSD, read-out: IL1β IC50. In a few lines:
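Human PBMCs from healthy donors, Ficoll-isolated and cryopreserved, were plated at 7.5×10^4 cells/well in RPMI/10% FBS for 30 min at 37 °C. Cells were then stimulated with 100 ng/ml LPS (final) for 6 h. IL-1β and TNF in supernatants were quantified by MSD immunoassay.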

Take `CC(C)c1nn(CC(=O)Nc2ccncc2F)c(=O)c2cc(C3CC3)nn12` [Final Cpd 96]: the concentration for a half-maximal effect (EC50) in the assay with TNF is > 10 µM. Besides, the 50% inhibitory concentration (IC50) in the assay on NLRP3 inflammasome is 0.24 µM.

`CC(C)c1nn(CC(=O)Nc2ccc3cnnn3c2)c(=O)c2cc(C3CC3)nn12` [Final Cpd 128]: the EC50 with TNF is > 10 µM. Also, the IC50 with NLRP3 inflammasome amounted to 2.55 µM.

Consider `CC(C)c1nn(CC(=O)Nc2ccc3nncn3c2)c(=O)c2c(F)c(C3CC3)nn12` [Final Cpd 44], for which the EC50 in the assay on TNF was > 10 µM. Besides, in the assay with NLRP3 inflammasome, the IC50 was found to be 0.62 µM.

Regarding `Cc1noc(C)c1[C@@H](c1ccccc1)N1CC(NC(=O)Cn2nc(C)n3nc(C4CC4)cc3c2=O)C1` [Final Cpd 58], the EC50 with TNF was > 10 µM. In addition, in the assay with NLRP3 inflammasome, the IC50 came out at 9.41 µM.

Regarding `CC(C)c1nn(CC(=O)Nc2ccnc(C(F)F)c2)c(=O)c2cc(C3CC3)nn12` [Final Cpd 130], the 50% effective concentration (EC50) in the assay on TNF is > 10 µM. Moreover, in the assay on NLRP3 inflammasome, the IC50 was found to be 0.53 µM.

Take `Cc1cc(NC(=O)Cn2nc(C(C)C)n3nc(C4CC4)cc3c2=O)ccn1` [Final Cpd 127]: the EC50 in the assay with TNF is > 10 µM. Further, the IC50 in the assay with NLRP3 inflammasome worked out at 0.18 µM.

Take `Cc1nc2ccc(NC(=O)Cn3nc(C(C)C)n4nc(C5CC5)cc4c3=O)cn2n1` [Final Cpd 89]: the EC50 in the assay with TNF is > 10 µM. In the assay on NLRP3 inflammasome, the IC50 worked out at 0.23 µM.

Take `CC(C)c1nn(CC(=O)NC2CCC(=O)N(C)C2)c(=O)c2cc(C3CC3)nn12` (stereo not drawn) [Final Cpd 29]: in the assay with TNF, the EC50 was > 10 µM. For the same molecule, in the assay on NLRP3 inflammasome, the IC50 was 1.79 µM.

For `CCc1nn(CC(=O)Nc2ccncn2)c(=O)c2cc(C3CC3)nn12` [Final Cpd 10, 2-(2-cyclopropyl-7-ethyl-4-oxo-pyrazolo[1,5-d][1,2,4]triazin-5-yl)-N-pyrimidin-4-yl-acetamide], the concentration for a half-maximal effect (EC50) in the assay on TNF is > 10 µM. For the same molecule, the IC50 in the assay on NLRP3 inflammasome worked out at 0.64 µM.

As to `Cc1nn(CC(=O)Nc2ccncn2)c(=O)c2cc(C3CC3)nn12` [Final Cpd 48], the EC50 in the assay on TNF is > 10 µM. Besides, in the assay on NLRP3 inflammasome, the IC50 worked out at 0.89 µM.

`Cc1nnc2ccc(NC(=O)Cn3nc(C(C)C)n4nc(C5CC5)cc4c3=O)nn12` [Final Cpd 171]: the EC50 in the assay on TNF was > 10 µM. In addition, the IC50 in the assay on NLRP3 inflammasome is 0.22 µM.

With `CC(C)c1nn(CC(=O)N[C@H]2C[C@@](C)(O)C2)c(=O)c2cc(CC(F)(F)F)nn12` [Final Cpd 160], the concentration for a half-maximal effect (EC50) in the assay with TNF was > 10 µM. The IC50 in the assay on NLRP3 inflammasome is > 10 µM.

Consider `COc1ccc(NC(=O)Cn2nc(C(C)C)n3nc(C4CC4)cc3c2=O)cn1` [Final Cpd 111], for which the 50% effective concentration (EC50) in the assay on TNF is > 10 µM. Further, in the assay on NLRP3 inflammasome, the concentration for half-maximal inhibition (IC50) amounted to 0.83 µM.

On to `CCc1cc2c(=O)n(CC(=O)Nc3ccnnc3)nc(N(C)C)n2n1` [Final Cpd 152], for which the EC50 in the assay on TNF is > 10 µM. Further, the IC50 with NLRP3 inflammasome is 0.86 µM.

On to `Cc1nn(CC(=O)N[C@H]2CCN(Cc3ccncc3)C2)c(=O)c2cc(C3CC3)nn12` [Final Cpd 59], for which the half-maximal effective concentration (EC50) in the assay on TNF is > 10 µM. In addition, the IC50 in the assay on NLRP3 inflammasome is > 10 µM.

As for `CCOC(C)c1cc2c(=O)n(CC(=O)Nc3ccncn3)nc(C(C)C)n2n1` (stereo not drawn) [Final Cpd 180, 2-(2-(1-ethoxyethyl)-74 sopropyl-4-oxopyrazolo[1,5-d][1,2,4]triazin-5(4H)-yl)-N-(pyrimidin-4-yl)acetamide], in the assay on TNF, the EC50 is > 10 µM. Besides, the IC50 with NLRP3 inflammasome is > 10 µM.

With `CC(C)c1nn(CC(=O)Nc2ccc3nc(C(F)(F)F)cn3c2)c(=O)c2cc(C3CC3)nn12` [Final Cpd 167], the EC50 with TNF was > 10 µM. The IC50 with NLRP3 inflammasome came to 0.38 µM.

Regarding `CC(C)Cc1nn(CC(=O)Nc2ccc3nncn3c2)c(=O)c2cc(C3CC3)nn12` [Final Cpd 69], in the assay on TNF, the EC50 was > 10 µM. Also, the IC50 in the assay with NLRP3 inflammasome is ~2.45 µM.
